According to ChEMBL document CHEMBL3045378, “Synthesis and evaluation of 4-amino-5-phenyl-4H-[1,2,4]-triazole-3-thiol derivatives as antimicrobial agents” (2010):
Values after ≈ are worked out from the molar mass of the structure shown.

Key:
Format in all cases: functional
[1] = system: Trichoderma; assay: Antifungal activity against Trichoderma sp. ATCC 5248 at 5 to 20 ug/ml after 24 hr by paper disk diffusion method
[2] = system: Escherichia coli; assay: Antibacterial activity against Escherichia coli DH5[alpha] at 5 to 20 ug/ml after 24 hr by paper disk diffusion method
[3] = system: Pseudomonas fluorescens; assay: Antibacterial activity against Pseudomonas fluorescens ATCC 3458 5 to 20 ug/ml after 24 hr by paper disk diffusion method
[4] = system: Saccharomyces cerevisiae; assay: Antifungal activity against Saccharomyces cerevisiae 180 after 24 hr by paper disk diffusion method; conditions: Saccharomyces cerevisiae, 180, 24 h
[5] = system: Bacillus subtilis; assay: Antibacterial activity against Bacillus subtilis ATCC 6633 after 24 hr by paper disk diffusion method; conditions: ATCC 6633, 24 h
[6] = system: Aspergillus niger; assay: Antifungal activity against Aspergillus niger ATCC 4578 at 5 to 20 ug/ml after 24 hr by paper disk diffusion method
[7] = system: Fusarium verticillioides; assay: Antifungal activity against Fusarium verticillioides NCIM 1276 after 24 hr by paper disk diffusion method; conditions: NCIM 1276, 24 h
[8] = system: Pseudomonas aeruginosa; assay: Antibacterial activity against Pseudomonas aeruginosa MTCC 3363 5 to 20 ug/ml after 24 hr by paper disk diffusion method
[9] = system: Pseudomonas aeruginosa; assay: Antibacterial activity against Pseudomonas aeruginosa MTCC 3363 after 24 hr by paper disk diffusion method; conditions: MTCC 3363, 24 h
[10] = system: Saccharomyces cerevisiae; assay: Antifungal activity against Saccharomyces cerevisiae 180 at 5 to 20 ug/ml after 24 hr by paper disk diffusion method
[11] = system: Trichoderma; assay: Antifungal activity against Trichoderma sp. ATCC 5248 after 24 hr by paper disk diffusion method; conditions: ATCC 5248, 24 h
[12] = system: Aspergillus niger; assay: Antifungal activity against Aspergillus niger ATCC 4578 after 24 hr by paper disk diffusion method; conditions: ATCC 4578, 24 h
[13] = system: Escherichia coli; assay: Antibacterial activity against Escherichia coli DH5[alpha] after 24 hr by paper disk diffusion method
[14] = system: Bacillus subtilis; assay: Antibacterial activity against Bacillus subtilis ATCC 6633 5 to 20 ug/ml after 24 hr by paper disk diffusion method
[15] = system: Fusarium verticillioides; assay: Antifungal activity against Fusarium verticillioides NCIM 1276 at 5 to 20 ug/ml after 24 hr by paper disk diffusion method
[16] = system: Pseudomonas fluorescens; assay: Antibacterial activity against Pseudomonas fluorescens ATCC 3458 after 24 hr by paper disk diffusion method; conditions: ATCC 3458, 24 h

SMILES | diameter of the inhibition zone (DIZ) [1] [mm] | diameter of the inhibition zone (DIZ) [2] [mm] | diameter of the inhibition zone (DIZ) [3] [mm] | MIC [4] [µg/mL] | MIC [5] [µg/mL] | diameter of the inhibition zone (DIZ) [6] [mm] | MIC [7] [µg/mL] | diameter of the inhibition zone (DIZ) [8] [mm] | MIC [9] [µg/mL] | diameter of the inhibition zone (DIZ) [10] [mm] | MIC [11] [µg/mL] | MIC [12] [µg/mL] | MIC [13] [µg/mL] | diameter of the inhibition zone (DIZ) [14] [mm] | diameter of the inhibition zone (DIZ) [15] [mm] | MIC [16] [µg/mL]
Nn1c(S)nnc1-c1ccccc1 | 16 | 16 | 16 | 12.5 (≈ 65 µM) | 12.5 (≈ 65 µM) | 16 | 12.5 (≈ 65 µM) | 16 | 12.5 (≈ 65 µM) | 16 | 12.5 (≈ 65 µM) | 12.5 (≈ 65 µM) | 12.5 (≈ 65 µM) | 16 | 16 | 12.5 (≈ 65 µM)
Nn1c(Sc2ccc(S(=O)(=O)Cl)cc2)nnc1-c1ccccc1 | <12 | <10 | <10 | 15 (≈ 40.9 µM) | 15 (≈ 40.9 µM) | <12 | 15 (≈ 40.9 µM) | <10 | 15 (≈ 40.9 µM) | <12 | 15 (≈ 40.9 µM) | 15 (≈ 40.9 µM) | 15 (≈ 40.9 µM) | <10 | <12 | 15 (≈ 40.9 µM)
Nn1c(Sc2ccc(Br)cc2)nnc1-c1ccccc1 | 16 | 16 | 16 | 10 (≈ 28.8 µM) | 10 (≈ 28.8 µM) | 16 | 10 (≈ 28.8 µM) | 16 | 10 (≈ 28.8 µM) | 16 | 10 (≈ 28.8 µM) | 10 (≈ 28.8 µM) | 10 (≈ 28.8 µM) | 16 | 16 | 10 (≈ 28.8 µM)
Nn1c(Sc2ccc(C(Cl)(Cl)Cl)cc2)nnc1-c1ccccc1 | 22 | 14 | 14 | 5 (≈ 13 µM) | 5 (≈ 13 µM) | 14 | 5 (≈ 13 µM) | 16 | 5 (≈ 13 µM) | 16 | 5 (≈ 13 µM) | 5 (≈ 13 µM) | 5 (≈ 13 µM) | 14 | 18 | 5 (≈ 13 µM)
Nn1c(Sc2ccc(Cl)cc2)nnc1-c1ccccc1 | 16 | 16 | 16 | 10 (≈ 33 µM) | 10 (≈ 33 µM) | 16 | 10 (≈ 33 µM) | 16 | 10 (≈ 33 µM) | 16 | 10 (≈ 33 µM) | 10 (≈ 33 µM) | 10 (≈ 33 µM) | 16 | 16 | 10 (≈ 33 µM)
Nn1c(S)nnc1-c1ccccc1O | 16 | 16 | 16 | 12.5 (≈ 60 µM) | 12.5 (≈ 60 µM) | 16 | 12.5 (≈ 60 µM) | 16 | 12.5 (≈ 60 µM) | 16 | 12.5 (≈ 60 µM) | 12.5 (≈ 60 µM) | 12.5 (≈ 60 µM) | 16 | 16 | 12.5 (≈ 60 µM)
CC(=O)Nn1c(S)nnc1-c1ccccc1 | <12 | <10 | <10 | 15 (≈ 64 µM) | 15 (≈ 64 µM) | <12 | 15 (≈ 64 µM) | <10 | 15 (≈ 64 µM) | <12 | 15 (≈ 64 µM) | 15 (≈ 64 µM) | 15 (≈ 64 µM) | <10 | <12 | 15 (≈ 64 µM)
Nn1c(Sc2ccc([N+](=O)[O-])cc2[N+](=O)[O-])nnc1-c1ccccc1 | <12 | <10 | <10 | 15 (≈ 41.9 µM) | 15 (≈ 41.9 µM) | <12 | 15 (≈ 41.9 µM) | <10 | 15 (≈ 41.9 µM) | <12 | 15 (≈ 41.9 µM) | 15 (≈ 41.9 µM) | 15 (≈ 41.9 µM) | <10 | <12 | 15 (≈ 41.9 µM)
CO/N=C(\C(=O)N[C@@H]1C(=O)N2C(C(=O)O)=C(CSc3nc(=O)c(O)nn3C)CS[C@H]12)c1csc(N)n1 [CEFTRIAXONE] | – | 16 | 16 | – | 5 (≈ 9.02 µM) | – | – | 18 | 5 (≈ 9.02 µM) | – | – | – | 5 (≈ 9.02 µM) | 16 | – | 5 (≈ 9.02 µM)
CC(=O)N1CCN(c2ccc(OCC3COC(Cn4ccnc4)(c4ccc(Cl)cc4Cl)O3)cc2)CC1 (centres undefined) [KETOCONAZOLE] | 25 | – | – | 5 (≈ 9.41 µM) | – | 16 | 5 (≈ 9.41 µM) | – | – | 18 | 5 (≈ 9.41 µM) | 5 (≈ 9.41 µM) | – | – | 20 | –
